Data set [1] concerns D6 (CQ^S) P. falciparum strain. As to the kind of experiment: In vitro fluorescence (Sybr Green I) growth inhibition assay, D6 strain. Conditions: Plasmodium falciparum. The data set is classed as cell-based. The text has this: (§1) One exemplary method for measuring inhibitory effects of RCQ compound in vitro has been reported by Smilkstein et al. (Antimicrob. Agents Chemother., 48(5):1803-1806, 2004). This method employs fluorescent detection of the level of parasitemia in cultured red blood cells and can be automated for high-throughput screening of antimalarial RCQs. This exemplary method allows the inhibitory agent (such as a RCQ) to be in contact with the parasite for an entire developmental cycle without purine starvation, which is in contrast to the traditional ^3H-hypoxanthine method (Desjardins et al., Antimicrob. Agents Chemother., 16(6):710-718, 1979). Briefly, to perform the Smilkstein et al. method, an initial parasitemia of approximately 0.2% is attained by adding uninfected red blood cells (RBCs) to a stock culture of Plasmodium sp.-infected RBCs. […] After a period of incubation (such as about 72 hours), a sufficient amount (e.g., 100 μL) of a fluorescent DNA binding dye-detergent mixture (e.g., Sybr Green I dye-detergent mixture) to lyse cells and bind to DNA is added to the reactions. Because uninfected RBCs have no DNA, only parasite DNA (in infected RBCs) is available for binding to the fluorescent dye (e.g., Sybr Green I). Samples are then incubated in the dark for a period of time (e.g., one hour), followed by measurement of levels of fluorescence. For Sybr Green I, excitation and emission wavelength are 485 and 530 nm, respectively. Fluorescence readings, which represent the amount of parasite DNA in the sample, can be plotted against the Log [drug] and fit to a curve by nonlinear regression to obtain the IC50 value for the tested compound.
(§2) An in vitro fluorescence assay for determining IC50 of antimalarial drugs was performed as previously described by Smilkstein et al. (Antimicrob. Agents Chemother., 48(5):1803-1806, 2004). This relatively low-cost procedure can be automated for high-throughput screening of the antimalarial activities of RCQs described herein. Advantageous, this method also allows the tested agent (e.g, a RCQ) to be in contact with the parasite for an entire developmental cycle without purine starvation (which occurs with the commonly used ^3H-hypoxanthine method; see, e.g., Desjardins et al., Antimicrob. Agents Chemother., 16, (6):[…], 1979).
(§3) Briefly, an initial parasitemia of approximately 0.2% was attained by addition of uninfected red blood cells to a stock culture of cells infected with Dd2 (CQ^R) or D6 (CQ^S) P. falciparum strains. A 10 mM RCQ_02 solution (in DMSO) was prepared. RCQ_02 (at a final concentration from 10^−11 to 10^−4 M) and infected red blood cells (at a final concentration of 2% (v/v)) were mixed in 100 μL samples in individual wells of a 96-well plate. Each sample was prepared in triplicate. A triplicate set of reactions containing CQ (instead of RCQ_02) was included as a control. After a 72 hour incubation period, Sybr Green I dye-detergent mixture (100 μL) was added to each reaction. The samples were further incubated for an hour in the dark, and then placed in a 96-well fluorescence plate reader (Gemini-EM, […]) and analyzed with excitation and emission wavelength bands at 485 and 530 nm, respectively. Fluorescence readings were plotted against the Log [drug], and curve fitting performed by nonlinear regression to find the IC50 value.

Data set [2] deals with Dd2 (CQ^R) P. falciparum strain. As to the kind of experiment: In vitro fluorescence (Sybr Green I) growth inhibition assay, Dd2 strain. The data set is classed as cell-based. Conditions: Plasmodium falciparum.
From the text: as §1, §2, §3

For data set [3], the system named is W2 (CQ^R) P. falciparum strain. As to the kind of experiment: In vitro fluorescence (Sybr Green I) growth inhibition assay, W2 strain. The data set is classed as cell-based. As to conditions: Plasmodium falciparum.
For data set [4] the following is noted: pH 5.7; Dorn et al., Xu et al.; cited from earlier work.
The subject of data set [5] is P. falciparum strain D6. Conditions: cited from earlier work.
Data set [6] deals with P. falciparum strain FCR3. As to conditions: cited from earlier work.
Data set [7] relates to P. falciparum strain W2. Conditions: cited from earlier work.
Data set [8] concerns P. falciparum strain Dd2. As to conditions: cited from earlier work. Further: key: S = sensitive; R = resistant; S/R = intermediate level of resistance.
Data set [9] relates to P. falciparum strain 3D7. Conditions: cited from earlier work.
In data set [10] the test system is P. falciparum strain TM91C235. As to conditions: cited from earlier work. Further: key: S = sensitive; R = resistant; S/R = intermediate level of resistance.
Data set [11] in a line: Heme binding by UV-VIS spectrophotometric titration (association constant). Conditions: similar methodologies as for RCQ_02. The text has this:
Optionally, heme binding of RCQ compounds can be determined by any method known in the art, including, for example, spectrophotometric methods, like UV-VIS spectroscopy or NMR spectroscopy. Methods of measuring heme binding to a variety of molecules using the UV-VIS spectrum have been described (see, e.g., Xu et al., J. Inorg. Biochem., 86 (2-3):617-625, 2001; Xu et al., Antimicrob. Agents Chemother., 46(1):144-150, 2002). Generally, a heme-binding compound (such as a disclosed RCQ) is mixed in increasing concentration with heme (or a heme model compound, such as porphyrin or metalloporphyrin) and the absorbance spectrum is measured from the ultraviolet region well into the visible region (from about 300 nm to about 750 nm). This spectral range includes the so-called Soret and Q-band regions that arise from porphyrin or metalloporphyrin absorbance. Upon interaction between a heme-binding compound and heme (or a heme model compound, such as porphyrin or metalloporphyrin), decreased absorbance in the Soret region is observed. […]
In particular examples, the formation of heme-RCQ complexes can be determined by UV-VIS spectrophotometric titration, using a variety of commercially available spectrophotometers (such as a Varian-Cary 3E spectrophotometer). […] Optionally, pH can be monitored throughout the procedure to ensure that it remains unchanged. […]

In data set [12] the test system is mitogen-induced murine spleen lymphocytes. The data set is classed as cell-based. Conditions: LC50; mouse spleen lymphocytes; 72 hours + 24 hours resazurin. On the procedure:
Mouse spleen lymphocytes were isolated from C57B1/6J mice by teasing tissues on a metallic sieve screen. […] Two hundred (200) μl isolated cells were then seeded in separate wells of a 96-well flat-bottom tissue culture plate at a density of 2×10^5 cells per well. […] After 72 hours incubation in a humidified atmosphere at 37° C. and 5% CO2, a solution of resazurin PBS was added to a final concentration 10 μM, and the plates were returned to the incubator for another 24 hours. Resazurin is a substrate which changes color in response to metabolic activity (such as, living cells). […] LC50 values were determined from plots of florescence versus drug concentration using non-linear regression by Prism software.
A general note: Alamar Blue is a resazurin reagent that responds to reducing activity.

Where two headings read alike, the source gives them in different places.

Here are results for two compounds from US9493420B2, “Quinoline derivatives and uses thereof” (Portland State University, priority 2005, dated 2016).
Wherever Drug susceptibility, strain D6 is given: key: S = sensitive; R = resistant; S/R = intermediate level of resistance.
Wherever Drug susceptibility, strain FCR3 is given: key: S = sensitive; R = resistant; S/R = intermediate level of resistance.
Wherever Drug susceptibility, strain W2 is given: key: S = sensitive; R = resistant; S/R = intermediate level of resistance.

The IC50 is the concentration at which inhibition is half-maximal. `CCN(CC)CCCC(C)Nc1ccnc2cc(Cl)ccc12` (centres unmarked) [CQ, chloroquine]: the IC50 in data set [1] (D6, 72 h) was found to be 6.5 nM; in data set [1] (D6, read-out: IC50 (nM) D6 (CQ^S)), 6.9 nM; in [2] (DD2, 72 h), 102 nM; in [2] (DD2, read-out: IC50 (nM) Dd2 (CQ^R)) it was 102 nM; in [3] (W2, read-out: IC50 (nM) W2 (CQ^R)), 250 nM. In data set [4], the “association constant reported for CQ.heme2” value is ~400000 M⁻¹. For the same compound, the “Drug susceptibility, strain D6” value in data set [5] is “S”. In addition, the “Drug susceptibility, strain FCR3” value in data set [6] was “R”. Further, the “Drug susceptibility, strain W2” value in [7] is recorded as “R”. The “Drug susceptibility, strain Dd2” value in [8] is recorded as “R”. For the same compound, the “Drug susceptibility, strain 3D7” value in [9] was “S”. The “Drug susceptibility, strain TM91C235” value in data set [10] is listed as “R”.

Consider `Clc1ccc2c(NCCN3CCN(C(c4ccccc4)c4ccccc4)CC3)ccnc2c1` [RCQ_31], for which the heme association constant in data set [11] turned out to be 500000 M⁻¹. In addition, the IC50 came to 1 nM in data set [1] (D6, Table 13, growth inhibition, read-out: IC50 (nM) D6 (CQ^S)); 3.6 nM in [2] (DD2, Table 13, growth inhibition, read-out: IC50 (nM) Dd2 (CQ^R)); 4.3 nM in [3] (W2, Table 13, growth inhibition, read-out: IC50 (nM) W2 (CQ^R)). In addition, in [12], the “Cytotoxicity” value is listed as 1900 nM.
